{"source": "patent US20110008447A1", "about": "“CARRIER COMPRISING NANODIAMOND” (NATIONAL CHIAO TUNG UNIVERSITY, priority 2009, published 2011)", "key": {"[1]": {"system": "A549 cells", "test": "cytoskeleton and nuclei staining, confocal microscope", "format": "cell-based, human", "details": "24 hours, taxol 50 nM"}, "[2]": {"system": "A549 cells", "test": "flow cytometer cell cycle analysis", "format": "cell-based, human", "details": "in comparison with non-treated samples, p<0.01"}}, "data": [{"molecule": "CC(=O)O[C@H]1C(=O)[C@@]2(C)[C@H]([C@H](OC(=O)c3ccccc3)[C@]3(O)C[C@H](OC(=O)[C@H](O)[C@@H](NC(=O)c4ccccc4)c4ccccc4)C(C)=C1C3(C)C)[C@]1(OC(C)=O)CO[C@@H]1C[C@@H]2O", "note": "[taxol]", "values": [{"measurement": "mitosis of the cells", "setting": "[1]; carrier 100 μg/mL", "value": "significantly enhancing mitosis"}, {"measurement": "effect on microtubules, spindle and chromosomes", "setting": "[1]; carrier or ND 100 μg/mL", "value": "induced polymerization of microtubules, inhibited formation of spindle, and inhibited separation of chromosomes"}, {"measurement": "G1/G0 cell population", "setting": "[2]", "value": "significantly reduced"}]}]}
